Laboratory results published in US11622970B2, “BCL-2 inhibitors and their use as pharmaceuticals” (PRELUDE THERAPEUTICS INCORPORATED, priority 2020, dated 2023).

Target: BCL-2 recombinant protein (Homo sapiens, UniProt P10415)
Test: Cell free Bcl-2:Bak affinity assay (Bcl-2 Bak), HTRF competition of FAM-Bak peptide
Assay type: binding
Details: 4 nM BCL-2 recombinant protein, 100 nM FAM-Bak; for inhibition at 1 µM: 1 μM compound, read-out: potency (% inhibition at 1 μM); for IC50: 10-concentration IC50 mode, read-out: potency (IC50)
Procedure: Biological Assays: Cell Free Bcl-2:Bak Affinity Assay (Bcl-2 Bak)
The assay is based on the competition of fluorescently labeled peptide binding to BCL-2 and the binding is monitored by HTRF signals between anti-GST-Tb and FAM-peptide using GST-Tag BCL proteins. Testing compounds were dissolved in DMSO at 10 mM and tested in 10-concentration IC50 mode. The compounds of interest in DMSO were added in 3-fold serial dilution to each well containing 4 nM of BCL-2 recombinant protein, 20 mM K Phosphate, pH 7.5, 50 mM NaCl, 1 mM EDTA, 0.005% Triton X-100, by using acoustic technology (Labcyte echo 550), After 10 minutes incubation at room temperature, 100 nM of FAM-Bak was added and incubated for another 10 minutes before addition of Anti-GST-Tb. The plate was then sealed and further incubated at room temperature for 60 minutes in the dark before reading. Percentage of inhibition was calculated by % inhibition=100×(FDMSO−F)/(FDMSO−FPC), in which FDMSO is DMSO control and FPC is a positive control. IC50 values were determined from dose-response curve by fitting the percent inhibition against compound concentration using GraphPad Prism software.

BCL-2 recombinant protein, sequence (P10415 whole entry): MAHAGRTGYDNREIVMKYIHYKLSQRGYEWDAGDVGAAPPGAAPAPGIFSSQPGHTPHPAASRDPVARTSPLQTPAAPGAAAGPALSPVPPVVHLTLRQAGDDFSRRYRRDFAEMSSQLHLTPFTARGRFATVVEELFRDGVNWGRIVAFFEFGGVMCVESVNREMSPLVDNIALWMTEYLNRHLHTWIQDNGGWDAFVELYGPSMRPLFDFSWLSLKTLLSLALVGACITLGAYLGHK

Structure (SMILES)	inhibition at 1 µM	IC50
CC1(C)CCC(CN2CCN(c3ccc(S(=O)(=O)NC(=O)C4CC=CCC4)cc3)CC2)=C(c2ccc(Cl)cc2)C1 (stereo not drawn) [Example 28, N-([4-[4-[[2-(4-chlorophenyl)-4,4-dimethylcyclohexen-1-yl]methyl]piperazin-1-yl]phenyl]sulfonyl)cyclohex-3-ene-1-carboxamide]	< 50%	
Cc1nc(C(=O)NS(=O)(=O)c2ccc(N3CCN(CC4=C(c5ccc(Cl)cc5)CC(C)(C)CC4)CC3)cc2Oc2cnc3[nH]ccc3c2)ccc1F [Example 69, N-[4-[4-[[2-(4-chlorophenyl)-4,4-dimethylcyclohexen-1-yl]methyl]piperazin-1-yl]-2-(1H-pyrrolo[2,3-b]pyridin-5-yloxy)phenyl]sulfonyl-5-fluoro-6-methylpyridine-2-carboxamide]		10 to 100 nM
CC1(C)CCC(CN2CCN(c3ccc(S(=O)(=O)NC(=O)c4ccnc5sccc45)c(Oc4cnc5[nH]ccc5c4)c3)CC2)=C(c2ccc(Cl)cc2)C1 [Example 93, N-[4-[4-[[2-(4-chlorophenyl)-4,4-dimethylcyclohexen-1-yl]methyl]piperazin-1-yl]-2-(1H-pyrrolo[2,3-b]pyridin-5-yloxy)phenyl]sulfonylthieno[2,3-b]pyridine-4-carboxamide]		10 to 100 nM
Cc1cc([N+](=O)[O-])cc(C(=O)NS(=O)(=O)c2ccc(C3=CCN(CC4=C(c5ccc(Cl)cc5)CC(C)(C)CC4)CC3)cc2Oc2cnc3[nH]ccc3c2)n1 [Example 64, N-[4-[1-[[2-(4-Chlorophenyl)-4,4-dimethylcyclohexen-1-yl]methyl]-3,6-dihydro-2H-pyridin-4-yl]-2-(1H-pyrrolo[2,3-b]pyridin-5-yloxy)phenyl]sulfonyl-6-methyl-4-nitropyridine-2-carboxamide]		> 1000 nM
CC1(C)CCC(CN2CCN(c3ccc(S(=O)(=O)NC(=O)c4cncc([N+](=O)[O-])c4)cc3)CC2)=C(c2ccc(Cl)cc2)C1 [Example 23, N-([4-[4-[[2-(4-chlorophenyl)-4,4-dimethylcyclohexen-1-yl]methyl]piperazin-1-yl]phenyl]sulfonyl)-5-nitropyridine-3-carboxamide]	50 to 90%	

More lines, now with the values ahead:

inhibition at 1 µM	IC50	Structure (SMILES)
50 to 90%		Cc1cc(C(=O)NS(=O)(=O)c2ccc(N3CCN(CC4=C(c5ccc(Cl)cc5)CC(C)(C)CC4)CC3)cc2)[nH]n1 [Example 14, N-([4-[4-[[2-(4-chlorophenyl)-4,4-dimethylcyclohexen-1-yl]methyl]piperazin-1-yl]phenyl]sulfonyl)-3-methyl-1H-pyrazole-5-carboxamide]
50 to 90%		Cc1ncc(C(=O)NS(=O)(=O)c2ccc(N3CCN(CC4=C(c5ccc(Cl)cc5)CC(C)(C)CC4)CC3)cc2)cn1 [Example 8, N-([4-[4-[[2-(4-chlorophenyl)-4,4-dimethylcyclohexen-1-yl]methyl]piperazin-1-yl]phenyl]sulfonyl)-2-methylpyrimidine-5-carboxamide]
	10 to 100 nM	Cc1nc(C(=O)NS(=O)(=O)c2ccc(N3CCN(CC4=C(c5ccc(Cl)cc5)CC(C)(C)CC4)CC3)cc2Oc2cnc3[nH]ccc3c2)ccc1[N+](=O)[O-] [Example 70, N-[4-[4-[[2-(4-chlorophenyl)-4,4-dimethylcyclohexen-1-yl]methyl]piperazin-1-yl]-2-(1H-pyrrolo[2,3-b]pyridin-5-yloxy)phenyl]sulfonyl-6-methyl-5-nitropyridine-2-carboxamide]
	> 1000 nM	Cc1cc(S(C)(=O)=O)cc(C(=O)NS(=O)(=O)c2ccc(N3CCN(CC4=C(c5ccc(Cl)cc5)CC(C)(C)CC4)CC3)cc2Oc2cnc3[nH]ccc3c2)n1 [Example 97, N-[4-[4-[[2-(4-Chlorophenyl)-4,4-dimethylcyclohexen-1-yl]methyl]piperazin-1-yl]-2-(1H-pyrrolo[2,3-b]pyridin-5-yloxy)phenyl]sulfonyl-6-methyl-4-methylsulfonylpyridine-2-carboxamide]
